In PubChem BioAssay AID1259407 (Chemical Carcinogenesis Research Information System (CCRIS), 2018) one finds mutagenic call data, which are given here for 13 compounds.

The test system of the series is CCRIS mutagenicity, Ames/micronucleus/aberration tests. As to the kind of experiment: CCRIS mutagenicity studies.
The mark [1] stands for this setting: Test System: AMES SALMONELLA TYPHIMURIUM, Strain/Indicator: TA100, Metabolic Activation: NONE, Method: PREINCUBATION
Setting [2] is: Test System: AMES SALMONELLA TYPHIMURIUM, Strain/Indicator: TA1535, Metabolic Activation: HAMSTER, LIVER, S-9, AROCLOR 1254 (10%), Method: PREINCUBATION
[3] abbreviates: Test System: AMES SALMONELLA TYPHIMURIUM, Strain/Indicator: TA1535, Metabolic Activation: NONE, Method: PREINCUBATION
Where [4] appears, read: Test System: AMES SALMONELLA TYPHIMURIUM, Strain/Indicator: TA1535, Metabolic Activation: RAT, LIVER, S-9, AROCLOR 1254 (10%), Method: PREINCUBATION
[5] abbreviates: Test System: AMES SALMONELLA TYPHIMURIUM, Strain/Indicator: TA98, Metabolic Activation: NONE, Method: STANDARD PLATE.
Setting [6] is: Test System: AMES SALMONELLA TYPHIMURIUM, Strain/Indicator: TA98, Metabolic Activation: NONE, Method: PREINCUBATION
[7] abbreviates: Test System: CHINESE HAMSTER V-79, Strain/Indicator: V-79/8-AZAGUANINE, Metabolic Activation: NONE, Method: STANDARD PLATE.

Activity calls are given as the source filed them. The rule behind the calls is not given here.

Regarding `c1ccc2sc(SSc3nc4ccccc4s3)nc2c1`, the mutagenic call (Test System: AMES SALMONELLA TYPHIMURIUM, Strain/Indicator: TA97, Metabolic Activation: HAMSTER, LIVER, S-9, AROCLOR 1254 (10%), Method: PREINCUBATION) was “inactive; negative”; the mutagenic call (Test System: AMES SALMONELLA TYPHIMURIUM, Strain/Indicator: TA97, Metabolic Activation: NONE, Method: PREINCUBATION) is “active; positive”; the mutagenic call (Test System: AMES SALMONELLA TYPHIMURIUM, Strain/Indicator: TA97, Metabolic Activation: RAT, LIVER, S-9, AROCLOR 1254 (10%), Method: PREINCUBATION) is “inactive; negative”; the mutagenic call (Test System: AMES SALMONELLA TYPHIMURIUM, Strain/Indicator: TA98, Metabolic Activation: HAMSTER, LIVER, S-9, AROCLOR 1254 (10 OR 30%), Method: PREINCUBATION) is “inactive; negative”; the mutagenic call (Test System: AMES SALMONELLA TYPHIMURIUM, Strain/Indicator: TA98, Metabolic Activation: RAT, LIVER, S-9, AROCLOR 1254 (10 OR 30%), Method: PREINCUBATION) was “inactive; negative”; the mutagenic call (Test System: AMES SALMONELLA TYPHIMURIUM, Strain/Indicator: TA100, Metabolic Activation: HAMSTER, LIVER, S-9, AROCLOR 1254 (10 OR 30%), Method: PREINCUBATION) is “inactive; negative”. Moreover, the mutagenic call under setting [1] is “inactive; negative”; the mutagenic call (Test System: AMES SALMONELLA TYPHIMURIUM, Strain/Indicator: TA100, Metabolic Activation: RAT, LIVER, S-9, AROCLOR 1254 (10 OR 30%), Method: PREINCUBATION) was “active; positive”; the mutagenic call under setting [2] is “inactive; negative”; the mutagenic call under setting [3] was “inactive; negative”; the mutagenic call under setting [4] was “inactive; negative”.
Regarding `Cc1ccc(C)c2c1c1ccccc1n2C`, the mutagenic call is “inactive; negative” under setting [5]; “active; positive” (Test System: AMES SALMONELLA TYPHIMURIUM, Strain/Indicator: TA98, Metabolic Activation: RAT LIVER S-9, AROCLOR 1254, Method: STANDARD PLATE); “inactive; negative” (Test System: AMES SALMONELLA TYPHIMURIUM, Strain/Indicator: TA100, Metabolic Activation: NONE, Method: STANDARD PLATE); “active; positive” (Test System: AMES SALMONELLA TYPHIMURIUM, Strain/Indicator: TA100, Metabolic Activation: RAT LIVER S-9, AROCLOR 1254, Method: STANDARD PLATE).
Take `O=[N+]([O-])c1c2ccccc2c([N+](=O)[O-])c2ccccc12`: the mutagenic call under setting [5] was “inactive; negative”.
Turning to `O=C1c2ccccc2C(=O)c2c1cc(O[C@@H]1O[C@H](CO[C@@H]3OC[C@@H](O)[C@H](O)[C@H]3O)[C@@H](O)[C@H](O)[C@H]1O)c(CO)c2O`, the mutagenic call reads like this: under setting [6], “inactive; negative”; (Test System: AMES SALMONELLA TYPHIMURIUM, Strain/Indicator: TA98, Metabolic Activation: RAT, LIVER, S-9, PCB, Method: PREINCUBATION) “inactive; negative”; under setting [1], “active; positive”; (Test System: AMES SALMONELLA TYPHIMURIUM, Strain/Indicator: TA100, Metabolic Activation: RAT, LIVER, S-9, PCB, Method: PREINCUBATION) “inactive; negative”; (Test System: UDS RODENT HEPATOCYTES, Strain/Indicator: THY INCORP, Metabolic Activation: NONE) “active; positive”.
Regarding `CCCCCC/C=C/C=O`, the mutagenic call runs as follows: (End Point: IN VITRO CHROMOSOMAL ABERRATIONS, Test System: RAT HEPATOCYTES, Metabolic Activation: NONE) “inactive; negative”; (End Point: IN VITRO MICRONUCLEUS, Test System: RAT HEPATOCYTES, Metabolic Activation: NONE) “inactive; negative”; (Test System: CHINESE HAMSTER V-79, Strain/Indicator: V-79/6-THIOGUANINE, Metabolic Activation: NONE, Method: STANDARD PLATE) “active; positive”; (Test System: CHINESE HAMSTER V-79, Strain/Indicator: V-79/OUABAIN, Metabolic Activation: NONE, Method: STANDARD PLATE) “inactive; negative”.
As for `Cc1ccc2c(c1)Cc1cc(C)ccc1-2`, the mutagenic call runs as follows: (Test System: AMES SALMONELLA TYPHIMURIUM, Strain/Indicator: TA98, Metabolic Activation: RAT, LIVER, S-9, AROCLOR 1254, Method: STANDARD PLATE) “inactive; negative”; (Test System: AMES SALMONELLA TYPHIMURIUM, Strain/Indicator: TA100, Metabolic Activation: RAT, LIVER, S-9, AROCLOR 1254, Method: STANDARD PLATE) “inactive; negative”.
For `[N-]=[N+]=O`, the mutagenic call under setting [7] is “active; positive”.
Take `Cc1cc(C)cc(OC(=O)N(C)N=O)c1`: the mutagenic call (Test System: E. COLI WP2, Strain/Indicator: WP2, Metabolic Activation: NONE, Method: STANDARD PLATE) is “active; positive”.
Turning to `Oc1cc2cc3ccccc3cc2c2ccccc12`, the mutagenic call under setting [7] was “active; positive”.
Regarding `CCCCCCCCCCCC[N+](C)(C)COCCCCCCCC`, the mutagenic call runs as follows: (Test System: BACILLUS SUBTILIS, Strain/Indicator: H17/REC, Metabolic Activation: NONE, Method: STANDARD PLATE) “inactive; negative”; (Test System: BACILLUS SUBTILIS, Strain/Indicator: M45, Metabolic Activation: NONE, Method: STANDARD PLATE) “inactive; negative”.
Regarding `C1CS1`, the mutagenic call runs as follows: (Test System: AMES SALMONELLA TYPHIMURIUM, Strain/Indicator: TA98, Metabolic Activation: HAMSTER, LIVER, S-9, AROCLOR 1254, Method: PREINCUBATION) “inactive; negative”; under setting [6], “inactive; negative”; (Test System: AMES SALMONELLA TYPHIMURIUM, Strain/Indicator: TA98, Metabolic Activation: RAT, LIVER, S-9, AROCLOR 1254, Method: PREINCUBATION) “inactive; negative”; (Test System: AMES SALMONELLA TYPHIMURIUM, Strain/Indicator: TA100, Metabolic Activation: HAMSTER, LIVER, S-9, AROCLOR 1254, Method: PREINCUBATION) “active; positive”; under setting [1], “active; positive”; (Test System: AMES SALMONELLA TYPHIMURIUM, Strain/Indicator: TA100, Metabolic Activation: RAT, LIVER, S-9, AROCLOR 1254, Method: PREINCUBATION) “active; positive”. Besides, the mutagenic call was “active; positive. reevaluation of results: positive” (Test System: MOUSE LYMPHOMA, Strain/Indicator: L5178Y (TK+/TK-), Metabolic Activation: NONE, Method: SUSPENSION/PLATE) and “active; positive. reevaluation of results: positive” (Test System: MOUSE LYMPHOMA, Strain/Indicator: L5178Y (TK+/TK-), Metabolic Activation: RAT, LIVER, S-9, AROCLOR 1254, Method: SUSPENSION/PLATE).
Regarding `CCCCN(CCC(=O)OC)N=O`, the mutagenic call (Test System: AMES SALMONELLA TYPHIMURIUM, Strain/Indicator: TA1535, Metabolic Activation: RAT, LIVER, S-9, KC500 OR PHENOBARBITAL, Method: LIQUID SUSPENSION) was “active; positive”.
As for `Clc1c(Cl)c(Br)c2c(c1Cl)-c1nc-2nc2[n-]c(nc3nc(nc4[n-]c(n1)c1c(Cl)c(Br)c(Cl)c(Br)c41)-c1c(Cl)c(Cl)c(Br)c(Cl)c1-3)c1c(Br)c(Cl)c(Br)c(Cl)c21.[Cu+2]`, the mutagenic call runs as follows: (Test System: AMES SALMONELLA TYPHIMURIUM, Strain/Indicator: TA98, Metabolic Activation: HAMSTER, LIVER, S-9, AROCLOR 1254 (10%), Method: PREINCUBATION) “active; positive”; under setting [6], “inactive; negative”; (Test System: AMES SALMONELLA TYPHIMURIUM, Strain/Indicator: TA98, Metabolic Activation: RAT, LIVER, S-9, AROCLOR 1254 (10%), Method: PREINCUBATION) “active; positive”; (Test System: AMES SALMONELLA TYPHIMURIUM, Strain/Indicator: TA100, Metabolic Activation: HAMSTER, LIVER, S-9, AROCLOR 1254 (10%), Method: PREINCUBATION) “inactive; negative”; under setting [1], “inactive; negative”; (Test System: AMES SALMONELLA TYPHIMURIUM, Strain/Indicator: TA100, Metabolic Activation: RAT, LIVER, S-9, AROCLOR 1254 (10%), Method: PREINCUBATION) “inactive; negative”. The mutagenic call was “inactive; negative” under setting [2]; “inactive; negative” under setting [3]; “inactive; negative” under setting [4]; “inactive; negative” (Test System: AMES SALMONELLA TYPHIMURIUM, Strain/Indicator: TA1537, Metabolic Activation: HAMSTER, LIVER, S-9, AROCLOR 1254 (10%), Method: PREINCUBATION); “inactive; negative” (Test System: AMES SALMONELLA TYPHIMURIUM, Strain/Indicator: TA1537, Metabolic Activation: NONE, Method: PREINCUBATION); “active; positive” (Test System: AMES SALMONELLA TYPHIMURIUM, Strain/Indicator: TA1537, Metabolic Activation: RAT, LIVER, S-9, AROCLOR 1254 (10%), Method: PREINCUBATION).
